From patent publication US20060229316A1, “Novel antiinfective compounds, process for their preparation and pharmaceutical compositions containing them” (priority 2002, published 2006)
In brackets after ≈: the same amount, converted by molar mass. Where two headings read alike, the source gives them in different places.

Columns and labels:
[1] = test system: Enterococcus faecalis ATCC 29212; assay: MIC by microbroth dilution, EF; assay type: cell-based
Description: (§1) The pharmaceutically acceptable compounds of the present invention are useful antibacterial agents having a good spectrum of activity in vitro and against standard Gram-positive organisms, which are used to screen for activity against pathogenic bacteria. […] The antibacterial spectrum and potency of a particular compound may be determined in a standard test system. The activity is described in terms of the minimum inhibitory concentration (MIC) determined by microbroth dilution technique as per NCCLS standards.
(§2) The minimum inhibitory concentrations (MIC's) of the compounds for the microorganisms listed in Table A were determined by preparing working solution for each compound of concentration of 128 μg/ml after dissolving it in DMSO. Two-fold serial dilution of the above solution was prepared in duplicates, using Mueller Hinton Broth, in 96 well Tissue culture plate with cover flat bottom wells to give a final volume of […] and concentration of compound ranging from 64 μg/ml-0.12 μg/ml. 30 μg/ml of Standard suspension of each organism which was prepared with turbidity equivalent to the 1:10 diluted 0.5 McFarland standard with density 10^7 CFU/ml, was added to each well to get approximately a density of 10^5 CFU/ml. These 96-well Tissue culture plate containing the test samples and positive and negative controls, were incubated at 37° C. for 16-18 hrs. The wells were visually inspected for growth and were also read at 630 nm by Automated Microplate Reader [(EL800) Trinity biotech.] and the MIC's were recorded as the lowest concentration of drug which inhibits the growth of bacteria.
(§3) The compounds of the present invention have useful activity against a variety of organisms. The in vitro activity of compounds of the present invention can be assessed by standard testing procedures such as the determination of minimum inhibitory concentration (MIC) by standard “Microdilution method” as described elsewhere in the specification. The pharmacokinetic profiling of the compounds were also done according to the protocol described in this specification. The activities of representative compounds of the present invention are given below in the following table.
EF: Enterococcus faecalis ATCC 29212

[2] = test system: Staphylococcus epidermidis ATCC 12228; assay: MIC by microbroth dilution, SE; assay type: cell-based
Description: as §1, §2, §3
SE: Staphylococcus epidermidis ATCC 12228

[3] = test system: Methicillin resistant Staphylococus aureus 653SP; assay: MIC by microbroth dilution, first column headed SA (guide: MRSA); assay type: cell-based, Staphylococcus aureus; conditions: for MIC: Staphylococcus aureus, read-out: MIC (μg/ml) in vitro activity in gram positive organisms, SA
Description: as §1, §2, §3
MRSA: Methicillin resistant Staphylococus aureus 653SP

[4] = test system: Staphylococus aureus ATCC 33591; assay: MIC by microbroth dilution, SA; assay type: cell-based, Staphylococcus aureus; conditions: for MIC: Staphylococcus aureus
Description: as §1, §2, §3
SA: Staphylococus aureus ATCC 33591

[5] = Enterococcus faecalis, ATCC29212, read-out: MIC (μg/ml) in vitro activity in gram positive organisms, EF
[6] = Staphylococcus epidermidis, ATCC12228, read-out: MIC (μg/ml) in vitro activity in gram positive organisms, SE
[7] = ATCC33591, read-out: MIC (μg/ml) in vitro activity in gram positive organisms, SA
[8] = ATCC29212, Enterococcus faecalis ATCC 29212, Mueller Hinton Broth, 37° C., 16-18 hrs, read-out: MIC (μg/ml) in vitro activity in gram positive organisms, EF
[9] = ATCC12228, Staphylococcus epidermidis ATCC 12228, Mueller Hinton Broth, 37° C., 16-18 hrs, read-out: MIC (μg/ml) in vitro activity in gram positive organisms, SE
[10] = SA, Mueller Hinton Broth, 37° C., 16-18 hrs
[11] = ATCC33591, Staphylococus aureus ATCC 33591, Mueller Hinton Broth, 37° C., 16-18 hrs, read-out: MIC (μg/ml) in vitro activity in gram positive organisms, SA
[12] = Enterococcus faecalis ATCC 29212, Mueller Hinton Broth, 37° C., 16-18 hrs
[13] = Staphylococus aureus ATCC 33591, Mueller Hinton Broth, 37° C., 16-18 hrs

Row | Compound | MIC [1, 8] | MIC [2, 9] | MIC [3, 10] | MIC [4, 11] | also measured
1 | CC(=S)NC[C@H]1CN(c2ccc(N3CCN(C(=O)C=Cc4ccc(O)cc4)CC3)c(F)c2)C(=O)O1 [Compound 64, (S)-N-[3-(3-Fluoro-4-{4-[3-(4-hydroxyphenyl)-acryloyl]-piperazin-1-yl]-phenyl)-2-oxo-oxazolidin-5-ylmethyl]thioacetamide] | – | – | – | – | MIC [1, 5]: 0.25 µg/mL (≈ 0.501 µM); MIC [2, 6]: 0.25 µg/mL (≈ 0.501 µM); MIC [3]: 0.5 µg/mL (≈ 1 µM); MIC [4, 7]: 0.25 µg/mL (≈ 0.501 µM)
2 | CC(=S)NC[C@H]1CN(c2ccc(N3CCN(C(=O)C=Cc4cccs4)CC3)c(F)c2)C(=O)O1 [Compound 70, (S)-N-[3-(3-Fluoro-4-{4-[3-(thiophen-2-yl)-acryloyl]-piperazinyl]-phenyl)-2-oxo-oxazolidin-5-ylmethyl]thioacetamide] | 0.5 µg/mL (≈ 1.02 µM) | 2 µg/mL (≈ 4.09 µM) | 1 µg/mL (≈ 2.05 µM) | 0.5 µg/mL (≈ 1.02 µM) | –
3 | CC(=S)NC[C@H]1CN(c2ccc(N3CCN(C(=O)C=Cc4ccco4)CC3)c(F)c2)C(=O)O1 [Compound 66, (S)-N-[3-(3-Fluoro-4-{4-[3-(furan-2-yl)-acryloyl]-piperazin-1-yl]-phenyl)-2-oxo-oxazolidin-5-ylmethyl]thioacetamide] | 0.5 µg/mL (≈ 1.06 µM) | 0.5 µg/mL (≈ 1.06 µM) | 1 µg/mL (≈ 2.12 µM) | 0.5 µg/mL (≈ 1.06 µM) | –
4 | CC(=O)NC[C@H]1CN(c2ccc(N3CCOCC3)c(F)c2)C(=O)O1 [Linezolid, reference compound] | 4 µg/mL (≈ 11.9 µM) | 4 µg/mL (≈ 11.9 µM) | 2 µg/mL (≈ 5.93 µM) | 4 µg/mL (≈ 11.9 µM) | –
5 | NC(=S)NC[C@H]1CN(c2ccc(N3CCN(C(=O)C=Cc4ccco4)CC3)c(F)c2)C(=O)O1 [Compound 127, (S)-N-[3-(3-Fluoro-4-{4-[3-(furan-2-yl)-acryloyl]-piperazin-1-yl]-phenyl)-2-oxo-oxazolidin-5-ylmethyl]thiourea] | 1 µg/mL (≈ 2.11 µM) | 0.5 µg/mL (≈ 1.06 µM) | 2 µg/mL (≈ 4.22 µM) | 2 µg/mL (≈ 4.22 µM) | –
6 | CC(=O)NC[C@H]1CN(c2ccc(N3CCN(C/C=C/c4ccccc4)CC3)c(F)c2)C(=O)O1 (stereo in doubt) | – | – | – | – | melting point: 134 to 136 °C
7 | NC(=S)NC[C@H]1CN(c2ccc(N3CCN(C(=O)C=Cc4c[nH]c5ccccc45)CC3)c(F)c2)C(=O)O1 [Compound 126, (S)-N-[3-(3-Fluoro-4-{4-[3-(1H-indol-3-yl)-acryloyl]-piperazin-1-yl]-phenyl)-2-oxo-oxazolidin-5-ylmethyl]thiourea] | 1 µg/mL (≈ 1.91 µM) | 0.5 µg/mL (≈ 0.957 µM) | 1 µg/mL (≈ 1.91 µM) | 1 µg/mL (≈ 1.91 µM) | –
8 | CC(=O)NC[C@H]1CN(c2ccc(N3CCN(C(=O)/C=C/c4cccs4)CC3)c(F)c2)C(=O)O1 [Compound 01] | 1 µg/mL (≈ 2.12 µM) | 1 µg/mL (≈ 2.12 µM) | 0.5 µg/mL (≈ 1.06 µM) | – | melting point: 223 to 225 °C
9 | (S)-N-[3-(3-Fluoro-4-{4-[3-(4-hydroxyphenyl)-acryloyl]-piperazin-1-yl]-phenyl)-2-oxo-oxazolidin-5-yl methyl thiourea [Compound 124] | – | – | – | – | MIC (μg/ml) in vitro activity in gram positive organisms, EF [1, 12]: 1 µg/mL; MIC (μg/ml) in vitro activity in gram positive organisms, SA [3, 10]: 1 µg/mL; MIC (μg/ml) in vitro activity in gram positive organisms, SA [4, 13]: 1 µg/mL
10 | (S)-N-[3-{4-(4-(3-Benzo[1,3]-dioxol-5-yl-acryloyl)-piperazin-1-yl}-3-fluorophenyl]-2-oxo-oxazolidin-5-yl methyl thiourea [Compound 125] | – | – | – | – | MIC (μg/ml) in vitro activity in gram positive organisms, EF [1, 12]: 0.5 µg/mL; MIC (μg/ml) in vitro activity in gram positive organisms, SA [3, 10]: 1 µg/mL; MIC (μg/ml) in vitro activity in gram positive organisms, SA [4, 13]: 4 µg/mL
11 | CC(=O)NC[C@H]1CN(c2ccc(N3CCN(C(=O)C=Cc4ccc(O)cc4)CC3)c(F)c2)C(=O)O1 [Compound 05, (S)-N-[3-(3-Fluoro-4-{4-[3-(4-hydroxyphenyl)-acryloyl]-piperazin-1-yl]-phenyl)-2-oxo-oxazolidin-5-ylmethyl]acetamide] | – | – | – | – | MIC [1, 5]: 0.5 µg/mL (≈ 1.04 µM); MIC [2, 6]: 0.5 µg/mL (≈ 1.04 µM); MIC [3]: 1 µg/mL (≈ 2.07 µM); MIC [4, 7]: 2 µg/mL (≈ 4.14 µM)
12 | NC(=S)NC[C@H]1CN(c2ccc(N3CCN(C(=O)/C=C/c4cccs4)CC3)c(F)c2)C(=O)O1 [Compound 123, (3/-N-[3-(3-Fluoro-4-{4-(thiophen-2-yl)-acryloyl]-piperazineyl]-phenyl)-2-oxo-oxazolidin-5-yl-methyl]thiourea] | 0.25 µg/mL (≈ 0.511 µM) | 0.5 µg/mL (≈ 1.02 µM) | 1 µg/mL (≈ 2.04 µM) | 1 µg/mL (≈ 2.04 µM) | melting point: 154 to 157 °C
13 | CC(=O)NC[C@H]1CN(c2ccc(N3CCN(C(=O)CO)CC3)c(F)c2)C(=O)O1 [Eperzolid, reference compound] | – | – | – | – | MIC (μg/ml) in vitro activity in gram positive organisms, EF [1, 12]: 2 µg/mL (≈ 5.07 µM); MIC (μg/ml) in vitro activity in gram positive organisms, SA [3, 10]: 2 µg/mL (≈ 5.07 µM); MIC (μg/ml) in vitro activity in gram positive organisms, SA [4, 13]: 4 µg/mL (≈ 10.1 µM)
